System: LG0703-F948-PDC complex spheroid viability
Test: Anticancer human tumor LG0703-F948-PDC patient-derived lung adenocarcinoma cell line growth inhibition [RAS]
Details: for viability, T/C: stronger effect = lower value; for IC50: curve of first compound; active = viability on the fitted dose curve at most 10% of control; inactive = the rest
Procedure, shortened: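 Multi-cell-type spheroids: tumor cells plus HUVEC endothelial cells and mesenchymal stem cells. RAS-pathway inhibitors were combined with targeted agents, each dosed in half-log steps down from clinical Cmax, or from 10 microM when Cmax was unknown.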
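Also: spheroids exposed to agents for 7 days.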
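For viability, T/C in this document: 100% = DMSO vehicle wells.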

CC(Nc1ccc2c(c1)OCCn1cc(N3C(=O)OCC3C(F)F)nc1-2)C(N)=O (configuration not stated)
inactive: viability, T/C (compound 0.0316 µM) 96.2% [middle of 4 runs] | viability, T/C (compound 0.1 µM) 88.9% [middle of 4 runs] | viability, T/C (compound 1 µM) 56.3% [middle of 4 runs] | viability, T/C (compound 3.16 µM) 45% [middle of 4 runs] | viability, T/C (compound 10 µM) 27.8% [middle of 4 runs]

C=CC(=O)N1CCN(c2nc(OCC3CCCN3C)nc3c(F)c(-c4nc(N)cc(C)c4C(F)(F)F)c(Cl)cc23)C(C)C1 (configuration not stated) + CCn1c(-c2cccnc2C(C)OC)c2c3cc(ccc31)N1CCOC(CC(NC(=O)C(C(C)C)N(C)C(=O)C3(F)CCN(C(=O)C#CC(C)(C)N(C)C)CC3)C(=O)N3CCCC(N3)C(=O)OCC(C)(C)C2)C1
> 1000 nM: IC50 (second compound 0.000949 µM) | IC50 (second compound 0.003 µM) | IC50 (second compound 0.00949 µM) | IC50 (second compound 0.03 µM) | IC50 (second compound 0.0949 µM)
inactive: viability, T/C (second compound 0.000949 µM, first compound 0.00316 µM) 91.1% | viability, T/C (second compound 0.000949 µM, first compound 0.01 µM) 92.5% | viability, T/C (second compound 0.000949 µM, first compound 0.0316 µM) 90.4% | viability, T/C (second compound 0.000949 µM, first compound 0.1 µM) 88% | viability, T/C (second compound 0.000949 µM, first compound 0.316 µM) 89.5% | viability, T/C (second compound 0.000949 µM, first compound 1 µM) 116% | viability, T/C (second compound 0.003 µM, first compound 0.00316 µM) 95.5% | viability, T/C (second compound 0.003 µM, first compound 0.01 µM) 85.6% | viability, T/C (second compound 0.003 µM, first compound 0.0316 µM) 99.5% | viability, T/C (second compound 0.003 µM, first compound 0.1 µM) 87.7% | viability, T/C (second compound 0.003 µM, first compound 0.316 µM) 80.7% | viability, T/C (second compound 0.003 µM, first compound 1 µM) 89.6% | viability, T/C (second compound 0.00949 µM, first compound 0.00316 µM) 89.6% | viability, T/C (second compound 0.00949 µM, first compound 0.01 µM) 95.1% | viability, T/C (second compound 0.00949 µM, first compound 0.0316 µM) 88.4% | viability, T/C (second compound 0.00949 µM, first compound 0.1 µM) 99% | viability, T/C (second compound 0.00949 µM, first compound 0.316 µM) 101% | viability, T/C (second compound 0.00949 µM, first compound 1 µM) 87.3% | viability, T/C (second compound 0.03 µM, first compound 0.00316 µM) 91.1% | viability, T/C (second compound 0.03 µM, first compound 0.01 µM) 89.3% | viability, T/C (second compound 0.03 µM, first compound 0.0316 µM) 78.1% | viability, T/C (second compound 0.03 µM, first compound 0.1 µM) 92.6% | viability, T/C (second compound 0.03 µM, first compound 0.316 µM) 107% | viability, T/C (second compound 0.03 µM, first compound 1 µM) 81.6% | viability, T/C (second compound 0.0949 µM, first compound 0.00316 µM) 78.2% | viability, T/C (second compound 0.0949 µM, first compound 0.01 µM) 79.1% | viability, T/C (second compound 0.0949 µM, first compound 0.0316 µM) 76.7% | viability, T/C (second compound 0.0949 µM, first compound 0.1 µM) 85.3% | viability, T/C (second compound 0.0949 µM, first compound 0.316 µM) 77.3% | viability, T/C (second compound 0.0949 µM, first compound 1 µM) 77.4% | viability, T/C (second compound 0.3 µM, first compound 0.00316 µM) 51.9% | viability, T/C (second compound 0.3 µM, first compound 0.01 µM) 47.8% | viability, T/C (second compound 0.3 µM, first compound 0.0316 µM) 47.7% | viability, T/C (second compound 0.3 µM, first compound 0.1 µM) 44.4% | viability, T/C (second compound 0.3 µM, first compound 0.316 µM) 59.9% | viability, T/C (second compound 0.3 µM, first compound 1 µM) 50.5%
< 3.16 nM: IC50 (second compound 0.3 µM)

Source: PubChem BioAssay AID2060890 (Molecular Pharmacology Branch, DTP, NCI, 2025)
